Experimental data as given in the supplement of paper PMC10307832.

Assays:
Assay in all cases: relative viability (nuclei count vs DMSO), 5 days (fraction); higher = more cells survive
[1] = compound: CC1(COc2ccc3c(c2)ncn3-c2ccc3cccc(N4CCC(N)CC4)c3n2)COC1 [Crenolanib] + COc1cccc2cc(-c3nc([C@H]4CC[C@H](C(=O)O)CC4)n4ncnc(N)c34)[nH]c12 [OSI-027] (partner 0.5 µM)
Method in brief: (§1)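 Relative viability was taken as the ratio of nuclei in treated wells to nuclei in vehicle wells. Lung cancer cell lines in 1536-well plates received compounds by pin tool one day after seeding, either one drug alone or a fixed anchor-drug dose plus five library-drug doses (not always all listed) in √10 steps. Nuclei were counted on 4× images after 5 days of treatment, and values are medians of duplicate plates.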

[2] = compound: CC1(COc2ccc3c(c2)ncn3-c2ccc3cccc(N4CCC(N)CC4)c3n2)COC1 [Crenolanib] + C[C@@H](Oc1cc(-c2cnn(C3CCNCC3)c2)cnc1N)c1c(Cl)ccc(F)c1Cl [Crizotinib] (partner 1 µM)
Method in brief: as §1

[3] = compound: CC1(COc2ccc3c(c2)ncn3-c2ccc3cccc(N4CCC(N)CC4)c3n2)COC1 [Crenolanib] + Nc1ncn([C@H]2C[C@H](O)[C@@H](CO)O2)c(=O)n1 [Decitabine] (partner 2 µM)
Method in brief: as §1

[4] = compound: O=C1NC(=O)[C@@H](c2cn3c4c(cccc24)CCC3)[C@@H]1c1c[nH]c2ccccc12 [Tivantinib] + COc1cccc2cc(-c3nc([C@H]4CC[C@H](C(=O)O)CC4)n4ncnc(N)c34)[nH]c12 [OSI-027] (partner 0.5 µM)
Method in brief: as §1

Cell Line	relative viability ([1]; first compound 0.01 µM)	relative viability ([1]; first compound 0.03162 µM)	relative viability ([1]; first compound 0.1 µM)	relative viability ([1]; first compound 0.3162 µM)	relative viability ([1]; first compound 1 µM)	relative viability ([2]; first compound 0.01 µM)	relative viability ([2]; first compound 0.03162 µM)	relative viability ([2]; first compound 0.1 µM)	relative viability ([2]; first compound 0.3162 µM)	relative viability ([2]; first compound 1 µM)	relative viability ([3]; first compound 0.01 µM)	relative viability ([3]; first compound 0.03162 µM)	relative viability ([3]; first compound 0.1 µM)	relative viability ([3]; first compound 0.3162 µM)	relative viability ([3]; first compound 1 µM)	relative viability ([4]; first compound 0.01 µM)	relative viability ([4]; first compound 0.03162 µM)	relative viability ([4]; first compound 0.1 µM)	relative viability ([4]; first compound 0.3162 µM)
COR-L 105	0.842	0.783	0.642	1	0.691	0.845	0.604	0.731	0.838	0.73	0.684	0.669	0.698	0.682	0.675	0.838	0.378	0.581	0.363
SK-LU-1	0.386	0.385	0.218	0.372	0.349	1	0.968	0.644	0.876	0.85	0.666	0.703	0.533	0.66	0.653	0.364	0.342	0.381	0.363
PC-3 [JPC-3]	0.804	0.725	0.803	0.792	0.719	0.975	0.958	0.907	1.05	0.991	0.785	–	0.806	0.82	0.806	0.841	0.724	0.716	0.48
NCI-H661	0.757	0.721	0.744	0.854	0.776	1.04	1.08	–	1.05	1.15	0.534	0.514	0.544	0.555	0.541	0.72	0.665	0.755	0.396
NCI-H2087	0.664	0.642	0.471	0.546	0.467	0.693	0.919	0.809	0.992	0.965	0.267	0.341	0.427	0.303	0.335	0.635	0.511	0.465	0.478
NCI-H1755	0.701	0.797	0.696	0.708	0.653	0.835	0.932	0.832	0.917	0.854	0.678	0.74	0.743	0.743	0.697	0.775	0.662	0.69	0.791
EMC-BAC-2	0.438	0.376	0.411	0.424	0.398	0.757	0.774	0.795	0.791	0.775	1.07	–	0.957	1.11	0.963	0.366	0.3	0.347	0.357
NCI-H2009	0.766	0.636	0.623	0.688	0.581	1.07	1.01	1.01	1.06	0.815	0.395	0.367	0.367	0.364	0.416	0.677	0.529	0.61	0.713
NCI-H596	0.866	0.84	0.696	0.703	0.731	1.01	1.07	0.87	0.904	1.04	1.09	0.991	0.933	1.05	1.03	0.619	0.62	0.821	0.734
